Experimental findings from paper PMC3179844 (Chemmedchem, 2011) are described below.

A short description of data set [1]: Metabolism studies in human liver microsomes. Type of data set: in vitro ADME. The conditions noted are these: for metabolites identified / half-life: human liver microsomes, 37 °C, NADPH; for microsomal CLint / half-life: human, liver microsomes; for half-life: 40 min, mean of two measurements. (In general: Liver microsomes are a subcellular fraction often used to study metabolism.)

Data set [2] concerns the target human cytochrome P450 2C19 (Homo sapiens, UniProt P33261). Put plainly: Inhibition of human cytochrome P450 2C19. Type of data set: in vitro ADME.
The target of data set [3] is T1, human cytochrome P450 1A2 (Homo sapiens, UniProt P05177).
T1 sequence (P05177 1-516): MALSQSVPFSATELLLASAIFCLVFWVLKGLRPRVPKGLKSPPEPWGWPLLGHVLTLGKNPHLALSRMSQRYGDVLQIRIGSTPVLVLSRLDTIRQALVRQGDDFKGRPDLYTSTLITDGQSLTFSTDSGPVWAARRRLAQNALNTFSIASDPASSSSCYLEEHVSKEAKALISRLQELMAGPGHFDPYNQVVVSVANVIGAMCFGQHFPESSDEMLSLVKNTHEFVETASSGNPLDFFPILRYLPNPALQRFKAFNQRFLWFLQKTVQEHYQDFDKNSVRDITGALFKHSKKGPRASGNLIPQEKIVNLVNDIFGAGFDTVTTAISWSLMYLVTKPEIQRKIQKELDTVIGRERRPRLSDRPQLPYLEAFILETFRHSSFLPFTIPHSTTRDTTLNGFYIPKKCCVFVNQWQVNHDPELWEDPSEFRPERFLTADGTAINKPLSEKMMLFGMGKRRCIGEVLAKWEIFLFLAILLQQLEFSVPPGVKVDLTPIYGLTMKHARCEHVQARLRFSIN
In words: Inhibition of human cytochrome P450 1A2. It counts as in vitro ADME.

Data set [4] deals with human cytochrome P450 3A4-BQ (Homo sapiens, UniProt P08684). In words: Inhibition of human cytochrome P450 3A4-BQ.
In data set [5] the target is human cytochrome P450 2C9 (Homo sapiens, UniProt P11712). In words: Inhibition of human cytochrome P450 2C9. Type of data set: in vitro ADME.
The target of data set [6] is human cytochrome P450 3A4-BFC (Homo sapiens, UniProt P08684). Put plainly: Inhibition of human cytochrome P450 3A4-BFC. Type of data set: in vitro ADME.
Data set [7] is described as follows: Water solubility in Na2HPO4 buffer solution. It counts as physicochemical. The conditions noted are these: aqueous buffer.
The target of data set [8] is human cytochrome P450 2D6 (Homo sapiens, UniProt P10635). Put plainly: Inhibition of human cytochrome P450 2D6. It counts as in vitro ADME.
Another data set concerns the target mouse 11β-HSD1 (Mus musculus, UniProt P50172). In words: Cellular 11β-HSD1 inhibition, mouse enzyme. The conditions noted are these: mean of three measurements. Type of data set: cell-based.

In general, microsomal CLint refers to a measure of how fast metabolising enzymes remove a compound, apart from limits set by blood flow. The low end stands for greater metabolic stability, the high end for faster metabolism. For orientation: half-life means how long it takes for the measured level to halve. The term IC50 denotes the point on the concentration scale where inhibition reaches its midpoint. A lower IC50 goes with inhibition by little substance. As a reminder, the solubility is how much of the substance goes into solution per volume. Lower therefore signals a poorly soluble substance. By melting point is commonly meant the temperature, or range, at which the solid turns liquid.

Chain of mouse 11β-HSD1 (P50172 whole entry): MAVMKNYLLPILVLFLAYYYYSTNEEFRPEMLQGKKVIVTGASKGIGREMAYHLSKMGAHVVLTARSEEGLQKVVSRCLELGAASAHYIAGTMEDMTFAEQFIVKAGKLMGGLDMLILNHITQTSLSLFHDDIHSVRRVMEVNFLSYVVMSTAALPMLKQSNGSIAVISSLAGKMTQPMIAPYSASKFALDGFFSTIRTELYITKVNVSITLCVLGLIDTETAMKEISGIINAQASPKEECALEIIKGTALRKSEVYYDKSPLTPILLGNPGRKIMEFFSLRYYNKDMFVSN
Chain of human cytochrome P450 2C19 (P33261 whole entry): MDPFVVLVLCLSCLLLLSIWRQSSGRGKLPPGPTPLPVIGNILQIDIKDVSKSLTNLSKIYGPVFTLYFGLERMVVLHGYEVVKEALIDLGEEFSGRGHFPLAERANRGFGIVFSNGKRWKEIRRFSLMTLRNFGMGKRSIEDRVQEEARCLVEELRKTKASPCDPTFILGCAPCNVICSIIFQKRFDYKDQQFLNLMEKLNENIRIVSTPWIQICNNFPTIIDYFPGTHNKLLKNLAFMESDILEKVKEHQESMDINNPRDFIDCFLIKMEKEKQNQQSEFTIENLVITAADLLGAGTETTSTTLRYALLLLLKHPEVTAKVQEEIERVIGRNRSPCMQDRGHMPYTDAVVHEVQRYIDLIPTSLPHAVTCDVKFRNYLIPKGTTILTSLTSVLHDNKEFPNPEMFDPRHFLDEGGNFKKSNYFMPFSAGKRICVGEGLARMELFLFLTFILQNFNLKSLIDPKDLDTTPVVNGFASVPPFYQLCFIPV
Chain of human cytochrome P450 2C9 (P11712 whole entry): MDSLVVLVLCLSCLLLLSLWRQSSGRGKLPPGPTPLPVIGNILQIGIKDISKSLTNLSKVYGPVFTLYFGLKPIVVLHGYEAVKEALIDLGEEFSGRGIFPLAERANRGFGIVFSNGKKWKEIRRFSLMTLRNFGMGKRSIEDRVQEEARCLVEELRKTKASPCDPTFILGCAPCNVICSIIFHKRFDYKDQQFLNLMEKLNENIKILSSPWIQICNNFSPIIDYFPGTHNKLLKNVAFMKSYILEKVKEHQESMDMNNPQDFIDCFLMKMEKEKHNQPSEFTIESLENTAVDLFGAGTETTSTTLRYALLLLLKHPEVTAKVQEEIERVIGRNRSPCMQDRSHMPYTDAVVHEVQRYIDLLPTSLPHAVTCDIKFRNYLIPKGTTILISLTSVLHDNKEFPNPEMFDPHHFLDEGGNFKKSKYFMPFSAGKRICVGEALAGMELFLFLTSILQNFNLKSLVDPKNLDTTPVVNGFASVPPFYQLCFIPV
Chain of human cytochrome P450 3A4-BQ (P08684 whole entry): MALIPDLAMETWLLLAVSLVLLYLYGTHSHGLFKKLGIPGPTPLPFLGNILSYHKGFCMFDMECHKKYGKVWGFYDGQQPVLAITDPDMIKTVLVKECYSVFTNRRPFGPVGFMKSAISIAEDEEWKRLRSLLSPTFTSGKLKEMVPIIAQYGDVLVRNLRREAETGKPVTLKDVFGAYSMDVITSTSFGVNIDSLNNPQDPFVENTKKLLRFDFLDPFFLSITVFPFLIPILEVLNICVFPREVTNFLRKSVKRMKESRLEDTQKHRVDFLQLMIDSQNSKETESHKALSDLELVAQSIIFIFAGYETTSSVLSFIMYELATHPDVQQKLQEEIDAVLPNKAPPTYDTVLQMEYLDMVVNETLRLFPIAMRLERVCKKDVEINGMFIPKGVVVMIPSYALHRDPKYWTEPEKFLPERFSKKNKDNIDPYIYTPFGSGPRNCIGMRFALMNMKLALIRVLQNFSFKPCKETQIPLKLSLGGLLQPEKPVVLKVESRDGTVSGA
Chain of human cytochrome P450 3A4-BFC (P08684 whole entry): as above
Chain of human cytochrome P450 2D6 (P10635 whole entry): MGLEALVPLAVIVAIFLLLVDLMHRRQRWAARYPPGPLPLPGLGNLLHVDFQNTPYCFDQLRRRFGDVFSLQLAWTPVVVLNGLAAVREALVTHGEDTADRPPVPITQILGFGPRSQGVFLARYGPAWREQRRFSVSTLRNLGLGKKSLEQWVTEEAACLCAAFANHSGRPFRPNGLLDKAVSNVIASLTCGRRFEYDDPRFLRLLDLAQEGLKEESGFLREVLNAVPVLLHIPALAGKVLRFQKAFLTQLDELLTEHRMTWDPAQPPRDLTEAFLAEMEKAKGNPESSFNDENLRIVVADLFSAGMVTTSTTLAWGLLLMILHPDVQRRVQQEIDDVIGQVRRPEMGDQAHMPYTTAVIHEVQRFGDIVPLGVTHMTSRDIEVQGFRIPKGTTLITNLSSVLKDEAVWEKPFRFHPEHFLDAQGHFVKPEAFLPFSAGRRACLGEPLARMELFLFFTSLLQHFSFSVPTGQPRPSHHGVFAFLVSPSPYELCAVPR

Regarding `O=C(COCc1cccnc1)C12CC3CC(CC(C3)C1)C2` [Compound 31, 1-(Adamantan-1-yl)-2-(pyridin-3-ylmethoxy)ethan-1-one], the metabolites identified result in data set [1] is “no metabolites identified”. In [1], this molecule displayed a microsomal CLint of 3.7 µL/min/mg. Besides, the half-life in data set [1] was found to be 2.13 h. Moreover, the IC50 is 46 µM in data set [2]; 23 µM in data set [3]; 1.6 µM in data set [4]; more than 100 µM in data set [5]; 68 µM in data set [6].

In [7], `Cl.O=C(COCc1cccnc1)C12CC3CC(CC(C3)C1)C2` [Compound 62, 1-(Adamantan-1-yl)-2-(pyridin-3-ylmethoxy)ethan-1-one hydrochloride] gave a solubility of more than 4000 µg/mL.

`O=C(C[S+]([O-])c1ccncc1)C12CC3CC(CC(C3)C1)C2` (stereo not shown) [Compound 18, 1-(Adamantan-1-yl)-2-(pyridine-4-sulfinyl)ethan-1-one]: the melting point is 136 to 138 °C. The IC50 in data set [2] is more than 100 µM. In [3], the IC50 was more than 100 µM. The molecule also displayed an IC50 in [4] of more than 100 µM. Also, the IC50 in data set [8] was more than 100 µM. The molecule further yielded an IC50 in data set [5] of more than 100 µM. The molecule also gave an IC50 against mouse 11β-HSD1 of 0.061 µM. Further, half-maximal inhibition in data set [6] (IC50) was put at 12 µM.

Molecule `O=C(CS(=O)(=O)Cc1ccccn1)C12CC3CC(CC(C3)C1)C2` [Compound 43, 1-(Adamantan-1-yl)-2-[(pyridin-2-ylmethyl)sulfonyl]ethan-1-one] had a melting point of 116 to 117 °C. For the same molecule, in data set [2], half-maximal inhibition (IC50) required 24 µM. The molecule further had an IC50 in [3] of 36 µM. Also, in data set [4], it took 24 µM to reach half-maximal inhibition (IC50). This molecule yielded an IC50 in [5] of more than 100 µM. The molecule also showed an IC50 at mouse 11β-HSD1 of 0.035 µM. For the same molecule, in data set [6], the IC50 is more than 100 µM.

In the case of `O=C(COCc1ccccn1)C12CC3CC(CC(C3)C1)C2` [Compound 28, 1-(Adamantan-1-yl)-2-(pyridin-2-ylmethoxy)ethan-1-one], the metabolites identified entry in data set [1] was “no metabolites identified”. The same molecule registered a microsomal CLint in data set [1] of 8.9 µL/min/mg. In data set [1], this molecule showed a half-life of 1.13 h. In addition, the IC50 is more than 100 µM in data set [2]; more than 100 µM in data set [3]; 78 µM in [4]; more than 100 µM in data set [8]; more than 100 µM in data set [5]; 0.044 µM at mouse 11β-HSD1. In data set [6], this molecule yielded an IC50 of 20 µM.
